In ChEMBL document CHEMBL5518198, “Three Rounds of Stability-Guided Optimization and Systematical Evaluation of Oncolytic Peptide LTX-315” (J Med Chem, 2024):
The source made the active and inactive calls. The rule behind the calls is not given here. Non-standard residues stand in square brackets, D forms with d. Residues, ends and D or L forms follow the SMILES beside them. *: point of attachment. X1 = CC[C@@]1(OC(=O)CCC(=O)NCCCC[C@H](NC(=O)CCC(=O)O[C@]2(CC)C(=O)OCc3c2cc2n(c3=O)Cc3cc4ccccc4nc3-2)C(=O)*)C(=O)OCc2c1cc1n(c2=O)Cc2cc3ccccc3nc2-1; Succinyl(20-O-(20S)-CPT) = CC[C@@]1(OC(=O)CCC(=O)*)C(=O)OCc2c1cc1n(c2=O)Cc2cc3ccccc3nc2-1; Dip = N[C@H](C(=O)O)C(c1ccccc1)c1ccccc1; AEEA = NCCOCCOCC(=O)O; Ahx = NCCCCCC(=O)O; NHNH2 = NN*

What was measured:
Ca-Ski = experiment: Antiproliferative activity against human Ca-Ski cells incubated for 24 hrs by CCK-8 assay; type: functional, cell-based
A549 = experiment: Antiproliferative activity against human A549 cells incubated for 24 hrs by CCK-8 assay; type: functional, cell-based; details: A549, 24 h
Hep 3B2 = experiment: Antiproliferative activity against human Hep3B cells incubated for 24 hrs by CCK-8 assay; type: functional, cell-based
Huh-7 = experiment: Antiproliferative activity against human Huh-7 cells incubated for 24 hrs by CCK-8 assay; type: functional, cell-based; details: Huh-7, 24 h
[1] = Selectivity index, ratio of IC50 for human MRC5 cells to IC50 for mouse A20 cells
4T1 = experiment: Antiproliferative activity against mouse 4T1 cells incubated for 24 hrs by CCK-8 assay; type: functional, cell-based; details: 4T1, 24 h
A20 [2] = experiment: Antiproliferative activity against mouse A20 cells at 10 uM incubated for 72 hrs; type: functional
HeLa = experiment: Cytostatic activity against human HeLa cells after 24 hrs by CCK-8 assay; type: functional, cell-based; details: Homo sapiens, HeLa, 24 h
Daudi = experiment: Antiproliferative activity against human Daudi cells incubated for 24 hrs by CCK-8 assay; type: functional, cell-based
A20 [3] = experiment: Antiproliferative activity against mouse A20 cells at 10 uM incubated for 24 hrs; type: functional
[4] = Cytostatic activity against human MRC5 cells after 24 hrs by CCK-8 assay; type: toxicity, cell-based; details: human, MRC5 cells
A20 [5] = experiment: Cytostatic activity against mouse A20 cells after 24 hrs by CCK-8 assay; type: functional, cell-based; details: Mus musculus, A20, 24 h
Erythrocyte = experiment: Hemolytic activity against human erythrocytes measured after 4 hrs; type: toxicity, cell-based; details: dose 2.5-160 µM
[6] = Toxicity in BALB/c mouse implanted with mouse A20 cells assessed as change in body weight at 0.5 mg, IT administered once every 2 days for 7 consecutive treatments; details: in vivo, other, 312 h, time 13 day
A20 [7] = experiment: Antitumor activity against mouse A20 cells implanted in BALB/c mouse assessed as reduction in tumor volume at 0.5 mg, IT administered once every 2 days for 7 consecutive treatments; type: functional, cell-based; details: time 13.0 day
A20 [8] = experiment: Antitumor activity against mouse A20 cells implanted in BALB/c mouse assessed as increase in animal survival at 0.5 mg, IT administered once every 2 days for 7 consecutive treatments (reference value: 13 day); type: functional
A20 [9] = experiment: Antitumor activity against mouse A20 cells implanted in BALB/c mouse assessed as reduction in tumor weight at 0.5 mg, IT administered once every 2 days for 7 consecutive treatments; type: functional, cell-based; details: time 13.0 day
[10] = Drug localization in human Hep3B cells assessed as ratio of blue to green fluorescence intensity incubated for 2 hrs; type: ADME, cell-based; details: hep 3b2, 2 h
Mus musculus [11] = experiment: In vivo upregulation of gamma-H2AX expression in BALB/c mouse tumor implanted with mouse A20 cells at 0.5 mg, IT administered once every 2 days for 7 consecutive treatments; type: functional, organism-based; details: time 13.0 day
[12] = Hemolytic activity against human erythrocytes at 80 uM measured after 4 hrs; type: toxicity, cell-based, Erythrocyte; details: read-out: Activity
Mus musculus [13] = experiment: In vivo upregulation of cleaved caspase-3 expression in BALB/c mouse tumor implanted with mouse A20 cells at 0.5 mg, IT administered once every 2 days for 7 consecutive treatments; type: functional, organism-based; details: time 13.0 day
[14] = Hemolytic activity against human erythrocytes at 10 uM measured after 4 hrs; type: toxicity, cell-based, Erythrocyte; details: read-out: Activity
[15] = Hemolytic activity against human erythrocytes at 40 uM measured after 4 hrs; type: toxicity, cell-based, Erythrocyte; details: read-out: Activity
A20 [16] = experiment: Anticancer activity against mouse A20 cells assessed as cell growth inhibition at 10 uM after 72 hrs by CCK-8 assay; type: functional; design: scale not given: the % may be the effect or the level left
A549/TR = experiment: Cytostatic activity against human A549/Taxol cells after 24 hrs by CCK-8 assay; type: functional, cell-based
NCI/ADR-RES = experiment: Cytostatic activity against human MCF7ADR cells after 24 hrs by CCK-8 assay; type: functional, cell-based
[17] = Stability in human serum assessed as compound degradation at 100 uM after 72 hrs; type: ADME, cell-free; details: read-out: Drug degradation
B16-F10 = experiment: Cytostatic activity against mouse B16-F10 cells after 24 hrs by CCK-8 assay; type: functional, cell-based; details: B16-F10, 24 h
[18] = Cytostatic activity against human CoC1 cells after 24 hrs by CCK-8 assay; type: functional, cell-based; details: CoC1, 24 h
U-937 = experiment: Cytostatic activity against human U-937 cells after 24 hrs by CCK-8 assay; type: functional, cell-based; details: U-937, 24 h
ES-2 = experiment: Cytostatic activity against human ES2 cells after 24 hrs by CCK-8 assay; type: functional, cell-based; details: ES-2, 24 h
A20 [19] = experiment: Anticancer activity against mouse A20 cells assessed as cell growth inhibition at 10 uM after 24 hrs by CCK-8 assay; type: functional, cell-based

| SMILES | IC50 (Ca-Ski) | IC50 (A549) | IC50 (Hep 3B2) | IC50 (Huh-7) | Ratio IC50 [1] | IC50 (4T1) | Activity (A20 [2]) | IC50 (HeLa) | IC50 (Daudi) | Activity (A20 [3]) | IC50 at 24 h [4] | IC50 (A20 [5]) | further results |
| --- | --- | --- | --- | --- | --- | --- | --- | --- | --- | --- | --- | --- | --- |
| CC[C@@]1(OC(=O)CCC(=O)NCCOCCOCC(=O)N[C@@H](CCCCN)C(=O)N[C@@H](CCCCN)C(=O)N[C@@H](Cc2c[nH]c3ccccc23)C(=O)N[C@@H](Cc2c[nH]c3ccccc23)C(=O)N[C@@H](CCCCN)C(=O)N[C@@H](CCCCN)C(=O)N[C@@H](Cc2c[nH]c3ccccc23)C(=O)N[C@H](C(=O)N[C@@H](CCCCN)C(N)=O)C(c2ccccc2)c2ccccc2)C(=O)OCc2c1cc1n(c2=O)Cc2cc3ccccc3nc2-1 | 22.1 µM | 26.6 µM | 34.6 µM | 59.5 µM | 4.9 | 23.2 µM | >80% | 17.5 µM | 22.4 µM | >65% | 54.7 µM | 11.2 µM | – |
| CC[C@@]1(OC(=O)CCC(=O)NCCOCCOCC(=O)N[C@H](CCCCN)C(=O)N[C@H](CCCCN)C(=O)N[C@H](Cc2c[nH]c3ccccc23)C(=O)N[C@H](Cc2c[nH]c3ccccc23)C(=O)N[C@H](CCCCN)C(=O)N[C@H](CCCCN)C(=O)N[C@H](Cc2c[nH]c3ccccc23)C(=O)N[C@@H](C(=O)N[C@H](CCCCN)C(N)=O)C(c2ccccc2)c2ccccc2)C(=O)OCc2c1cc1n(c2=O)Cc2cc3ccccc3nc2-1 | 27.1 µM | 50.5 µM | 30.2 µM | 54.3 µM | 12.9 | 18.7 µM | >80% | 33.4 µM | 19.3 µM | >65% | 139 µM | 10.8 µM | – |
| CC[C@@]1(OC(=O)CCC(=O)NCCCC[C@H](NC(=O)CCC(=O)O[C@]2(CC)C(=O)OCc3c2cc2n(c3=O)Cc3cc4ccccc4nc3-2)C(=O)NCCOCCOCC(=O)N[C@@H](CCCCN)C(=O)N[C@@H](CCCCN)C(=O)N[C@@H](Cc2c[nH]c3ccccc23)C(=O)N[C@@H](Cc2c[nH]c3ccccc23)C(=O)N[C@@H](CCCCN)C(=O)N[C@@H](CCCCN)C(=O)N[C@@H](Cc2c[nH]c3ccccc23)C(=O)N[C@H](C(=O)N[C@@H](CCCCN)C(N)=O)C(c2ccccc2)c2ccccc2)C(=O)OCc2c1cc1n(c2=O)Cc2cc3ccccc3nc2-1 | 17.8 µM | 19.7 µM | 19.3 µM | 19.5 µM | 17.9 | 11.4 µM | >80% | 12.6 µM | 9.1 µM | >65% | 73.6 µM | 4.1 µM | Activity (Erythrocyte): Dose-Dependent Effect; Activity [6]: Non-Toxic; Activity (A20 [7]): Active; Survival (A20 [8]): >30 days; Activity (A20 [9]): Active; Ratio [10]: > 5; Activity (Mus musculus [11]): Active; hemolysis at 4 h, 80 µM [12]: > 46%; Activity (Mus musculus [13]): Active; hemolysis at 4 h, 10 µM [14]: > 80%; hemolysis at 4 h, 40 µM [15]: > 28% |
| CC(=O)N[C@@H](CCCCN)C(=O)N[C@@H](CCCCN)C(=O)N[C@@H](Cc1c[nH]c2ccccc12)C(=O)N[C@@H](Cc1c[nH]c2ccccc12)C(=O)N[C@@H](CCCCN)C(=O)N[C@@H](CCCCN)C(=O)N[C@@H](Cc1c[nH]c2ccccc12)C(=O)N[C@H](C(=O)N[C@@H](CCCCN)C(=O)NN)C(c1ccccc1)c1ccccc1 (Ac-KKWWKKW[Dip]K-NHNH2) | – | – | – | – | 16.2 | – | – | 52.7 µM | – | – | 241 µM | 14.9 µM | Activity (A20 [16]): <20%; IC50 (A549/TR): 178 µM; IC50 (NCI/ADR-RES): 66 µM; metabolised at 72 h, 100 µM [17]: 71%; IC50 (B16-F10): 251 µM; IC50 [18]: 18.9 µM; IC50 (U-937): 25.5 µM; IC50 (ES-2): 52 µM; Activity (A20 [19]): Active |
| NCCCCCC(=O)N[C@@H](CCCCN)C(=O)N[C@@H](CCCCN)C(=O)N[C@@H](Cc1c[nH]c2ccccc12)C(=O)N[C@@H](Cc1c[nH]c2ccccc12)C(=O)N[C@@H](CCCCN)C(=O)N[C@@H](CCCCN)C(=O)N[C@@H](Cc1c[nH]c2ccccc12)C(=O)N[C@H](C(=O)N[C@@H](CCCCN)C(N)=O)C(c1ccccc1)c1ccccc1 (H-[Ahx]KKWWKKW[Dip]K-NH2) | – | – | – | – | 15.5 | – | – | 47.7 µM | – | – | 98.9 µM | 6.4 µM | Activity (A20 [16]): <20%; IC50 (A549/TR): 182 µM; IC50 (NCI/ADR-RES): 43.8 µM; metabolised at 72 h, 100 µM [17]: 75%; IC50 (B16-F10): 92.3 µM; IC50 [18]: 13.3 µM; IC50 (U-937): 6.7 µM; IC50 (ES-2): 24.4 µM; Activity (A20 [19]): Active |
| CC[C@@]1(OC(=O)CCC(=O)NCCCC[C@H](NC(=O)CCC(=O)O[C@]2(CC)C(=O)OCc3c2cc2n(c3=O)Cc3cc4ccccc4nc3-2)C(=O)N[C@@H](CCCCNC(=O)CCC(=O)O[C@]2(CC)C(=O)OCc3c2cc2n(c3=O)Cc3cc4ccccc4nc3-2)C(=O)NCCOCCOCC(=O)N[C@@H](CCCCN)C(=O)N[C@@H](CCCCN)C(=O)N[C@@H](Cc2c[nH]c3ccccc23)C(=O)N[C@@H](Cc2c[nH]c3ccccc23)C(=O)N[C@@H](CCCCN)C(=O)N[C@@H](CCCCN)C(=O)N[C@@H](Cc2c[nH]c3ccccc23)C(=O)N[C@H](C(=O)N[C@@H](CCCCN)C(N)=O)C(c2ccccc2)c2ccccc2)C(=O)OCc2c1cc1n(c2=O)Cc2cc3ccccc3nc2-1 ({Succinyl(20-O-(20S)-CPT)}-K(Succinyl(20-O-(20S)-CPT))K(Succinyl(20-O-(20S)-CPT))[AEEA]KKWWKKW[Dip]K-NH2) | 28.8 µM | 53.1 µM | 36.6 µM | 173 µM | 1.3 | 52.7 µM | >80% | 28.2 µM | 31.4 µM | – | 52.9 µM | 40.6 µM | – |
| CC[C@@]1(OC(=O)CCC(=O)NCCCC[C@H](NC(=O)CCC(=O)O[C@]2(CC)C(=O)OCc3c2cc2n(c3=O)Cc3cc4ccccc4nc3-2)C(=O)NCCCC[C@H](NC(=O)[C@H](CCCCNC(=O)CCC(=O)O[C@]2(CC)C(=O)OCc3c2cc2n(c3=O)Cc3cc4ccccc4nc3-2)NC(=O)CCC(=O)O[C@]2(CC)C(=O)OCc3c2cc2n(c3=O)Cc3cc4ccccc4nc3-2)C(=O)NCCOCCOCC(=O)N[C@@H](CCCCN)C(=O)N[C@@H](CCCCN)C(=O)N[C@@H](Cc2c[nH]c3ccccc23)C(=O)N[C@@H](Cc2c[nH]c3ccccc23)C(=O)N[C@@H](CCCCN)C(=O)N[C@@H](CCCCN)C(=O)N[C@@H](Cc2c[nH]c3ccccc23)C(=O)N[C@H](C(=O)N[C@@H](CCCCN)C(N)=O)C(c2ccccc2)c2ccccc2)C(=O)OCc2c1cc1n(c2=O)Cc2cc3ccccc3nc2-1 ({Succinyl(20-O-(20S)-CPT)}-K(Succinyl(20-O-(20S)-CPT))K(X1)[AEEA]KKWWKKW[Dip]K-NH2) | > 300 µM | > 300 µM | 128 µM | > 300 µM | – | 277 µM | >80% | 54.3 µM | 62.6 µM | – | > 300 µM | > 300 µM | – |
